According to patent US7642245B2, “Antibacterial compounds having a (pyrrole carboxamide)-(benzamide)-(imidazole carboxamide) motif” (Oscient Pharmaceuticals Corporation, priority 2002, dated 2010):

Assays:
E. coli ATCC 25922 = assay: MIC, NCCLS broth microdilution; assay type: cell-based, Escherichia coli; conditions: G = E. coli ATCC 25922
How it was run: (§1)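 Broth microdilution, NCCLS M7-A4/M11-A4/M27-T guidelines; read-out MIC. MRSA strain for S. aureus. Candida: Manual of Clinical Microbiology method.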

S. aureus ATCC 13709 = assay: MIC, NCCLS broth microdilution; assay type: cell-based, Staphylococcus aureus; conditions: A = S. aureus ATCC 13709 (MSSA)
How it was run: (§2)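 Compounds were serially diluted in broth and tested against each strain according to NCCLS guidelines, with MIC taken as the endpoint. C. albicans was assayed per the Manual of Clinical Microbiology.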

S. aureus ATCC 27660 = assay: MIC, NCCLS broth microdilution; assay type: cell-based, Staphylococcus aureus; conditions: B = S. aureus ATCC 27660 (MRSA)
How it was run: as §2

S. pneumoniae ATCC 49619 = assay: MIC, NCCLS broth microdilution; assay type: cell-based, Streptococcus pneumoniae; conditions: E = S. pneumoniae ATCC 49619
How it was run: as §1

B. cereus ATCC 11778 = assay: MIC, NCCLS broth microdilution; assay type: cell-based, Bacillus cereus; conditions: D = B. cereus ATCC 11778
How it was run: as §2

C. albicans ATCC 38247 = assay: MIC, antifungal assay; assay type: cell-based, Candida albicans; conditions: F = C. albicans ATCC 38247
How it was run: as §2

[1] = system: M. catarrhalis (ATCC 25238); assay: MIC, NCCLS broth microdilution; assay type: cell-based, Moraxella (now Branhamella) catarrhalis; conditions: H = M. catarrhalis (ATCC 25238)
How it was run: as §2

E. faecalis ATCC 29212 = assay: MIC, NCCLS broth microdilution; assay type: cell-based, Enterococcus faecalis; conditions: C = E. faecalis ATCC 29212
How it was run: as §1

SMILES	Minimum Inhibitory Concentration (MIC) (E. coli ATCC 25922)	Minimum Inhibitory Concentration (MIC) (S. aureus ATCC 13709)	Minimum Inhibitory Concentration (MIC) (S. aureus ATCC 27660)	Minimum Inhibitory Concentration (MIC) (S. pneumoniae ATCC 49619)	Minimum Inhibitory Concentration (MIC) (B. cereus ATCC 11778)	Minimum Inhibitory Concentration (MIC) (C. albicans ATCC 38247)	Minimum Inhibitory Concentration (MIC) [1]	Minimum Inhibitory Concentration (MIC) (E. faecalis ATCC 29212)
Cn1cc(NC(=O)c2cc3ccccc3cn2)cc1C(=O)Nc1ccc(C(=O)Nc2cn(C)c(C(=O)NCCNC3CCCCC3)n2)cc1 [Compound A-35]	>32 µg/mL	+++ (MIC ≦ 4 μg/mL)	+++ (MIC ≦ 4 μg/mL)	+++ (MIC ≦ 4 μg/mL)	+++ (MIC ≦ 4 μg/mL)	>32 µg/mL	++ (4 < MIC < 12 μg/mL)	+++ (MIC ≦ 4 μg/mL)
Cn1cc(NC(=O)c2cc3ccccc3cn2)cc1C(=O)Nc1ccc(C(=O)Nc2cn(C)c(C(=O)NCCN3CCN(C(=O)OC(C)(C)C)CC3)n2)cc1 [Compound A-55]	>32 µg/mL	+++ (MIC ≦ 4 μg/mL)	+++ (MIC ≦ 4 μg/mL)	+++ (MIC ≦ 4 μg/mL)	+++ (MIC ≦ 4 μg/mL)	>32 µg/mL	+ (12 ≦ MIC ≦ 32 μg/mL)	+++ (MIC ≦ 4 μg/mL)
Cn1cc(NC(=O)c2sc3ccccc3c2Cl)cc1C(=O)Nc1ccc(C(=O)Nc2cn(C)c(C(=O)NCCN3CCC(O)CC3)n2)cc1 [Compound A-3]	>32 µg/mL	+++ (MIC ≦ 4 μg/mL)	+++ (MIC ≦ 4 μg/mL)	+++ (MIC ≦ 4 μg/mL)	+++ (MIC ≦ 4 μg/mL)	>32 µg/mL	++ (4 < MIC < 12 μg/mL)	+++ (MIC ≦ 4 μg/mL)
Cn1cc(NC(=O)c2cc3ccccc3cn2)cc1C(=O)Nc1ccc(C(=O)Nc2cn(C)c(C(=O)NCCN3CCC(F)(F)CC3)n2)cc1 [Compound A-11]	>32 µg/mL	+++ (MIC ≦ 4 μg/mL)	+++ (MIC ≦ 4 μg/mL)	+++ (MIC ≦ 4 μg/mL)	+++ (MIC ≦ 4 μg/mL)	>32 µg/mL	+++ (MIC ≦ 4 μg/mL)	+++ (MIC ≦ 4 μg/mL)
Cn1cc(NC(=O)c2cc3ccccc3cn2)cc1C(=O)Nc1ccc(C(=O)Nc2cn(C)c(C(=O)NCCN3CCC(O)C3)n2)cc1 (stereo not drawn) [Compound A-70]	+++ (MIC ≦ 4 μg/mL)	+++ (MIC ≦ 4 μg/mL)	+++ (MIC ≦ 4 μg/mL)	+++ (MIC ≦ 4 μg/mL)	+++ (MIC ≦ 4 μg/mL)	>32 µg/mL	+++ (MIC ≦ 4 μg/mL)	+++ (MIC ≦ 4 μg/mL)
CCC(O)CN1CCN(CCNC(=O)c2nc(NC(=O)c3ccc(NC(=O)c4cc(NC(=O)c5cc6ccccc6cn5)cn4C)cc3)cn2C)CC1 (stereo not drawn) [Compound A-78]	+ (12 ≦ MIC ≦ 32 μg/mL)	+++ (MIC ≦ 4 μg/mL)	+++ (MIC ≦ 4 μg/mL)	+++ (MIC ≦ 4 μg/mL)	+++ (MIC ≦ 4 μg/mL)	>32 µg/mL	+++ (MIC ≦ 4 μg/mL)	+++ (MIC ≦ 4 μg/mL)
Cn1cc(NC(=O)c2cc3ccccc3cn2)cc1C(=O)Nc1ccc(C(=O)Nc2cn(C)c(C(=O)NCCN3CCN(C(=O)CNC(=O)OC(C)(C)C)CC3)n2)cc1 [Compound A-64]	>32 µg/mL	+++ (MIC ≦ 4 μg/mL)	+++ (MIC ≦ 4 μg/mL)	+++ (MIC ≦ 4 μg/mL)	+++ (MIC ≦ 4 μg/mL)	>32 µg/mL	++ (4 < MIC < 12 μg/mL)	+++ (MIC ≦ 4 μg/mL)
CCN(CC)CCNC(=O)c1nc(NC(=O)c2ccc(NC(=O)c3cc(NC(=O)c4cc5ccccc5cn4)cn3C)cc2)cn1C [Compound A-25]	>32 µg/mL	+++ (MIC ≦ 4 μg/mL)	+++ (MIC ≦ 4 μg/mL)	+++ (MIC ≦ 4 μg/mL)	+++ (MIC ≦ 4 μg/mL)	>32 µg/mL	+++ (MIC ≦ 4 μg/mL)	+++ (MIC ≦ 4 μg/mL)
Cn1cc(NC(=O)c2cc3ccccc3cn2)cc1C(=O)Nc1ccc(C(=O)Nc2cn(C)c(C(=O)NCCN3CCN(CCO)CC3)n2)cc1 [Compound A-27]	>32 µg/mL	+++ (MIC ≦ 4 μg/mL)	+++ (MIC ≦ 4 μg/mL)	+++ (MIC ≦ 4 μg/mL)	+++ (MIC ≦ 4 μg/mL)	>32 µg/mL	+++ (MIC ≦ 4 μg/mL)	+++ (MIC ≦ 4 μg/mL)
CCN1CCN(CCNC(=O)c2nc(NC(=O)c3ccc(NC(=O)c4cc(NC(=O)c5cc6ccccc6cn5)cn4C)cc3)cn2C)CC1 [Compound A-13]	>32 µg/mL	+++ (MIC ≦ 4 μg/mL)	+++ (MIC ≦ 4 μg/mL)	+++ (MIC ≦ 4 μg/mL)	+++ (MIC ≦ 4 μg/mL)	>32 µg/mL	+++ (MIC ≦ 4 μg/mL)	+++ (MIC ≦ 4 μg/mL)
Cn1cc(NC(=O)c2ccc(Cl)cc2F)cc1C(=O)Nc1ccc(C(=O)Nc2cn(C)c(C(=O)NCCN3CCC(O)CC3)n2)cc1 [Compound A-4]	++ (4 < MIC < 12 μg/mL)	+++ (MIC ≦ 4 μg/mL)	+++ (MIC ≦ 4 μg/mL)	+++ (MIC ≦ 4 μg/mL)	+++ (MIC ≦ 4 μg/mL)	+ (12 ≦ MIC ≦ 32 μg/mL)	+++ (MIC ≦ 4 μg/mL)	+++ (MIC ≦ 4 μg/mL)
Cn1cc(NC(=O)c2cc3ccccc3cn2)cc1C(=O)Nc1ccc(C(=O)Nc2cn(C)c(C(=O)NCCN3CCN(S(C)(=O)=O)CC3)n2)cc1 [Compound A-56]	>32 µg/mL	+++ (MIC ≦ 4 μg/mL)	+++ (MIC ≦ 4 μg/mL)	+++ (MIC ≦ 4 μg/mL)	+++ (MIC ≦ 4 μg/mL)	>32 µg/mL	+++ (MIC ≦ 4 μg/mL)	+++ (MIC ≦ 4 μg/mL)
